{
  "source": "patent US11491132B2",
  "about": "“Methods for treating thrombocytopenia” (Enzychem Lifesciences Corporation, priority 2014, dated 2022)",
  "key": {"[1]": {"test_system": "splenic nodules, primitive progenitor cells and megakaryocytes", "assay": "Colony forming units in spleen (CFUs) assay in heavily irradiated mice", "type": "in vivo", "details": "PLAG 50 mg/kg/d i.p. or p.o.", "protocol": "In order to determine the in vivo effect of PLAG on the recovery of hematopoiesis, a CFUs assay is performed in heavily irradiated mice."}, "C3 [2]": {"test_system": "C3", "assay": "C3 expression in HepG2 cell line, RT-PCR of mRNA", "type": "cell-based, human", "details": "HepG2 cells, 2 hours", "protocol": "A liver cell line, HepG2 (American Type Culture Collection, ATCC, Rockville, Md.), is incubated and maintained at 37° C., 5% CO2 humid atmosphere in DMEM medium. When HepG2 cells, which are known to produce complement in culture, are treated with PLAG, the activity of complement is reduced effectively, as confirmed by RT-PCR of mRNA. In the RT-PCR, 5×10^5 number of HepG2 cells/ml are distributed into 12 well plates and induced C3 for 12 hours with 10% FCS. Then PLAG is added and further cultured for 2 hours. Cells are harvested and mRNA is isolated and RT-PCR is carried out with specific primer of C3; GAPDH is used as an internal control."}, "[3]": {"test_system": "white blood cells and neutrophils", "assay": "PLAG in combination with G-CSF in cyclophosphamide-treated mouse model", "type": "in vivo, mice", "details": "addition of PLAG to G-CSF; levels vs untreated mice", "excerpt": "Mice receive cyclophosphamide (100 mpk, i.p.) for a period of ten days, with or without G-CSF (0.25 mpk, i.p.) or G-CSF (0.25 mpk, i.p.) plus PLAG (25 mpk, p.o.): […]"}, "STAT6": {"target": "T1, STAT6 (Homo sapiens, UniProt P42226)", "T1 sequence (P42226 1-847)": "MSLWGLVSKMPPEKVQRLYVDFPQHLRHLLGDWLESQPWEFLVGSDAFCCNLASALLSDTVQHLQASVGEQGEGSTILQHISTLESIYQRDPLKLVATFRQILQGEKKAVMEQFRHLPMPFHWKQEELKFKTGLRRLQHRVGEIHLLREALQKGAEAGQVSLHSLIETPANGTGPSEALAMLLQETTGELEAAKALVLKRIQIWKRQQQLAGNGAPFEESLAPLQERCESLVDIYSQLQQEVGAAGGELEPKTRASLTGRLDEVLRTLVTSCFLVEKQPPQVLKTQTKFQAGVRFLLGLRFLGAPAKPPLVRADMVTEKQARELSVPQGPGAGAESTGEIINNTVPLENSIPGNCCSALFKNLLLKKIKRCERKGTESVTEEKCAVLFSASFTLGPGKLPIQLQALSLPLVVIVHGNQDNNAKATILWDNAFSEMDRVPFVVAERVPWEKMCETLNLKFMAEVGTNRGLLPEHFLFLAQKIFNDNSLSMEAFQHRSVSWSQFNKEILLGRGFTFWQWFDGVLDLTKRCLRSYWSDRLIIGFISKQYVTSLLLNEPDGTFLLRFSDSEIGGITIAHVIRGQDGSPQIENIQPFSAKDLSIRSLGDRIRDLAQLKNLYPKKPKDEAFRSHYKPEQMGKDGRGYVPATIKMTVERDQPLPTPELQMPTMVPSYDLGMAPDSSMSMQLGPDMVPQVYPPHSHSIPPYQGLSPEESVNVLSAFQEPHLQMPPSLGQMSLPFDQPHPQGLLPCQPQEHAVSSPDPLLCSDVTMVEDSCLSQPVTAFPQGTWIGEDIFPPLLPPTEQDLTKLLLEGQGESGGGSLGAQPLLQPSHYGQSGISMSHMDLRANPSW", "assay": "Reporter (luciferase) assay for STAT6 transcriptional activity in HepG2 cells", "type": "cell-based", "set-up": "endogenous in cells; host or cells: HepG2 (gene transfected)", "details": "gene transfected HepG2, 10 ng IL-4, PLAG 0.01-10 μg/ml, 12 hours incubation", "protocol": "By using STAT6 inhibitor (S6I), it is confirmed that the reduction of Complement 3 in HepG2 cells (human hepatocyte cell line) is regulated by STAT6. […] It is also confirmed that PLAG has selective efficacy on STAT6 over STAT1. FIG. 1 presents graphs showing STAT1 and STAT6 transcriptional activity in the PLAG treated HepG2 cells. NC refers to the unstimulated control cell. For the STAT1 assay, gene transfected HepG2 (human hepatocyte cell line) is treated with 10 ng of IFN-γ and serially diluted PLAG is added (0.01 μg/ml, 0.1 μg/ml, 1 μg/ml, and 10 μg/ml as shown) to see its effect on gene expression in the stimulated cell. For the STAT6 assay, gene transfected HepG2 cells are treated with 10 ng of IL-4 and again serially diluted PLAG is added (0.01 μg/ml, 0.1 μg/ml, 1 μg/ml, and 10 μg/ml as shown) to see its effect on gene expression in the stimulated cell. The assay is carried out following 12 hours incubation of treated cells."}, "C3 [4]": {"test_system": "C3", "assay": "C3 in culture supernatant of HepG2 cells, ELISA", "type": "cell-based, human", "details": "PLAG 1 to 100 μg/ml or S6I 10 and 100 μg/ml, IL-4 and TNF-α 1 hr, 18 hr at 37° C.", "protocol": "The incubated HepG2 cell lines are treated with PLAG (1˜100 μg/ml), followed by IL-4 and TNF-α, reacted for 1 hour, incubated for 18 hours at 37° C. and the supernatant isolated. Quantitation of the amount of C3 in the cellular culture medium (supernatant) from HepG2 cells is performed by ELISA using a commercially available monoclonal antibody (mAb, R&D Systems) and the manufacture's protocol; the results are presented in FIG. 3. C3 is expressed spontaneously under in vitro culture condition using 10% FCS added to HepG2 cells incubated for 12 hr. The cells are treated with different doses of PLAG from 1 to 100 μg/ml (Panel A, Panel B) or 10 and 100 μg/ml of S6I (Panel C), reacted with IL-4 and TNF-α for 1 hr and then incubated for 18 hr at 37° C. Cellular viability is confirmed using the WST-1 assay (Panel A)."}},
  "data": [
    {"smiles": "CCCCC/C=C\\C/C=C\\CCCCCCCC(=O)OC(COC(C)=O)COC(=O)CCCCCCCCCCCCCCC", "note": "(racemic) [PLAG, 1-palmitoyl-2-linoleoyl-3-acetylglycerol]", "values": [
      {"measurement": "number of splenic nodules and numbers of primitive progenitor cells and megakaryocytes", "setting": "[1]", "result": "marked increase"},
      {"measurement": "inhibition of C3 expression (RT-PCR)", "setting": "C3 [2]; PLAG 1 microgram/ml", "result": "somewhat"},
      {"measurement": "inhibition of C3 expression (RT-PCR)", "setting": "C3 [2]; PLAG 10 microgram/ml", "result": "entirely"},
      {"measurement": "protection from cyclophosphamide-induced neutropenia", "setting": "[3]", "result": "substantially complete protection"},
      {"measurement": "STAT6 expression (transcriptional activity, reporter)", "setting": "STAT6", "result": "significant, dose-dependent effect"},
      {"measurement": "expression of C3 (amount in supernatant, ELISA)", "setting": "C3 [4]", "result": "decreased dose-dependently"}
    ]}
  ]
}
